Data: the kinase profiling compilation of Christmann-Franck et al. (2016)
Where “and” joins values, the source holds several entries; their conditions need not be identical. Equal values may be shown once. Each block holds one compound with its values, some of them ahead of it.

Experiments:
Assay in all cases: Caliper, Mobility shift assay off-chip
CDC42BPA (human) = CDC42BPA (human) (UniProt Q5VT25)
CDC7 (human) = CDC7 (human) (UniProt O00311)
CIT (human) = CIT (human) (UniProt O14578)
CLK1 (human) = CLK1 (human) (UniProt P49759)
DDR1 (human) = DDR1 (human) (UniProt Q08345)
EEF2K (human) = EEF2K (human) (UniProt O00418)
EPHA8 (human) = EPHA8 (human) (UniProt P29322)
EPHB1 (human) = EPHB1 (human) (UniProt P54762)
ERBB4 (human) = ERBB4 (human) (UniProt Q15303)
Chain of ERBB4 (human) (Q15303 whole entry, looked up): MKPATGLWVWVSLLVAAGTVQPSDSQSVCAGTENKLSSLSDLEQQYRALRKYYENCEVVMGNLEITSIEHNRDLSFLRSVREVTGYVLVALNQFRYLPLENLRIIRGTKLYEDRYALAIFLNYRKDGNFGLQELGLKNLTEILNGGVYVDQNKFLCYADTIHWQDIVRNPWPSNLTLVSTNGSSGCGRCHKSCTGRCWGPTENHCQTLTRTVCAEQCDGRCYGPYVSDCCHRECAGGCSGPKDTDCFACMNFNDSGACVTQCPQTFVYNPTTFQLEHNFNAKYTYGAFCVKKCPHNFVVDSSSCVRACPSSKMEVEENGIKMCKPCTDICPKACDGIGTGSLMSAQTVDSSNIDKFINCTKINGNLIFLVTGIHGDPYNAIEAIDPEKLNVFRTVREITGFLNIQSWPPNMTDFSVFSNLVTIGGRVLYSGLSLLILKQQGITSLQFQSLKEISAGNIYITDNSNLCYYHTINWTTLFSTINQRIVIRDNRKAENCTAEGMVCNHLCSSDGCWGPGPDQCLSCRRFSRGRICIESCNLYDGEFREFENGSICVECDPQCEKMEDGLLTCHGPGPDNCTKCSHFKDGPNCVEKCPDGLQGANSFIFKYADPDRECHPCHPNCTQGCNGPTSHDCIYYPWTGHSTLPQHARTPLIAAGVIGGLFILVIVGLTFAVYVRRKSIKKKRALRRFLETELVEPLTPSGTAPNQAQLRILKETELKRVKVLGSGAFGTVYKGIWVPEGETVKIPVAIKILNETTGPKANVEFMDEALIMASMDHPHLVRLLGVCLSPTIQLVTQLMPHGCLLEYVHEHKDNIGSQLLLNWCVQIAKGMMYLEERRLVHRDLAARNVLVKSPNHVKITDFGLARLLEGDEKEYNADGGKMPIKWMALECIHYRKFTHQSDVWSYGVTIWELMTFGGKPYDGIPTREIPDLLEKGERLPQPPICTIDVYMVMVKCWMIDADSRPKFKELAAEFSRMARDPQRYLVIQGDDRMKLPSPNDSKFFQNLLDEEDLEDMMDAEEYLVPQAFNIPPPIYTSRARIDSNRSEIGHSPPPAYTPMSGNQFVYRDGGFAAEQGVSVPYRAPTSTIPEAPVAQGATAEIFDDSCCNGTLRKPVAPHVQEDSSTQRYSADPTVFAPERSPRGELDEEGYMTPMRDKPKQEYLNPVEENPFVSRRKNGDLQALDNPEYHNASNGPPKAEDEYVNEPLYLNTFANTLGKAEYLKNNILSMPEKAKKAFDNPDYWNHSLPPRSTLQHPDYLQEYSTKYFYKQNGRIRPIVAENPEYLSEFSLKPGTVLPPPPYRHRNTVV

FLT4 (human) = FLT4 (human) (UniProt P35916)
GSK3A (human) = GSK3A (human) (UniProt P49840)
IRAK4 (human) = IRAK4 (human) (UniProt Q9NWZ3)
ITK (human) = ITK (human) (UniProt Q08881)
KIT (human) = KIT (human) (UniProt P10721)
LYN (human) = LYN (human) (UniProt P07948)
MAPK1 (human) = MAPK1 (human) (UniProt P28482)
MAPKAPK5 (human) = MAPKAPK5 (human) (UniProt Q8IW41)
MARK4 (human) = MARK4 (human) (UniProt Q96L34)
MUSK (human) = MUSK (human) (UniProt O15146)
NTRK3 (human) = NTRK3 (human) (UniProt Q16288)
NUAK1 (human) = NUAK1 (human) (UniProt O60285)
PAK1 (human) = PAK1 (human) (UniProt Q13153)
Chain of PAK1 (human) (Q13153 whole entry, looked up): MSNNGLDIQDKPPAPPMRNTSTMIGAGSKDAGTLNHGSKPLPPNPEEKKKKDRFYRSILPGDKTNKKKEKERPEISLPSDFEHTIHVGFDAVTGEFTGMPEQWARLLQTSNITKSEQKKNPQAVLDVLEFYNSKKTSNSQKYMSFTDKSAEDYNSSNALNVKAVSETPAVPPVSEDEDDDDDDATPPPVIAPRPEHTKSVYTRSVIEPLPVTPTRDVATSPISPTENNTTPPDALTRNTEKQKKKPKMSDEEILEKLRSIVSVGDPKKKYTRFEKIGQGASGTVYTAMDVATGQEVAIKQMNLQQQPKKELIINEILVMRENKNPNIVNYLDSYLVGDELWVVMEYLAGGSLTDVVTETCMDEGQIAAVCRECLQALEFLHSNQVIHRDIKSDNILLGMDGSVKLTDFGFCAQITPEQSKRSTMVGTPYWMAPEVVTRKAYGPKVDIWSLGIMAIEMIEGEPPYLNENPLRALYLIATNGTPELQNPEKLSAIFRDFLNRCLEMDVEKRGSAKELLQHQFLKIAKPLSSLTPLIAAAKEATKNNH

PAK2 (human) = PAK2 (human) (UniProt Q13177)
PDK2 (human) = PDK2 (human) (UniProt Q15119)
PIM1 (human) = PIM1 (human) (UniProt P11309)
PRKACB (human) = PRKACB (human) (UniProt P22694)
PRKACG (human) = PRKACG (human) (UniProt P22612)
Chain of PRKACG (human) (P22612 whole entry, looked up): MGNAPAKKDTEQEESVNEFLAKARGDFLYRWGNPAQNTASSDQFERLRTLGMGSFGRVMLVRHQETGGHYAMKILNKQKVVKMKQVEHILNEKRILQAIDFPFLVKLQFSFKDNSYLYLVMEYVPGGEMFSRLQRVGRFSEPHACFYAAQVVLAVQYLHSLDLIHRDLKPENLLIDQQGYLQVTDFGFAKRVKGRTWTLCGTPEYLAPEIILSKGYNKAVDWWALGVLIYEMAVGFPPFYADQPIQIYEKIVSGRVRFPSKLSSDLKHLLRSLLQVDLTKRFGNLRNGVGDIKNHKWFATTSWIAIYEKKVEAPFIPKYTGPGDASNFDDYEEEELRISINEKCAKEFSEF

PRKG2 (human) = PRKG2 (human) (UniProt Q13237)
SIK1 (human) = SIK1 (human) (UniProt P57059)
Chain of SIK1 (human) (P57059 whole entry, looked up): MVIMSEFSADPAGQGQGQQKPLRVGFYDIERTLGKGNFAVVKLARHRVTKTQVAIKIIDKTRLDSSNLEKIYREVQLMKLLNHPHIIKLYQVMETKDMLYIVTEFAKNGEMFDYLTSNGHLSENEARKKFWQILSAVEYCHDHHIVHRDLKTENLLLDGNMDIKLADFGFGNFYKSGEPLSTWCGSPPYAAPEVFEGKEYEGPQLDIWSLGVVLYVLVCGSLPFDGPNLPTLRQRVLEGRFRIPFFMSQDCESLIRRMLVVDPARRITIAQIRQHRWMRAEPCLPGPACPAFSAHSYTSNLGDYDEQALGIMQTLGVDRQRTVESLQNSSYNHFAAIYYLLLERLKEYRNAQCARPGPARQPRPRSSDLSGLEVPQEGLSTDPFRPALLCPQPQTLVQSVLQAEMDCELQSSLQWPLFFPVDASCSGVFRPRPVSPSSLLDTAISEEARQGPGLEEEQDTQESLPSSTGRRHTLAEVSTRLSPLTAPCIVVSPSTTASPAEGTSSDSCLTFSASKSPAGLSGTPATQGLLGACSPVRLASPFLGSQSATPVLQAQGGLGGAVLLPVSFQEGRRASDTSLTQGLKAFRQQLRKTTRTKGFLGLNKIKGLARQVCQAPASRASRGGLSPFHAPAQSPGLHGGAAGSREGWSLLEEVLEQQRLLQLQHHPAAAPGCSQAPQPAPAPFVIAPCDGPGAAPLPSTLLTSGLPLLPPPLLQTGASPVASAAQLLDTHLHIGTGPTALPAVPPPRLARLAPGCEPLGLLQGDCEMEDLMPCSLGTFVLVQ

SIK2 (human) = SIK2 (human) (UniProt Q9H0K1)
STK10 (human) = STK10 (human) (UniProt O94804)
STK24 (human) = STK24 (human) (UniProt Q9Y6E0)
STK3 (human) = STK3 (human) (UniProt Q13188)
STK4 (human) = STK4 (human) (UniProt Q13043)

Chain of CIT (human) (O14578 whole entry, looked up): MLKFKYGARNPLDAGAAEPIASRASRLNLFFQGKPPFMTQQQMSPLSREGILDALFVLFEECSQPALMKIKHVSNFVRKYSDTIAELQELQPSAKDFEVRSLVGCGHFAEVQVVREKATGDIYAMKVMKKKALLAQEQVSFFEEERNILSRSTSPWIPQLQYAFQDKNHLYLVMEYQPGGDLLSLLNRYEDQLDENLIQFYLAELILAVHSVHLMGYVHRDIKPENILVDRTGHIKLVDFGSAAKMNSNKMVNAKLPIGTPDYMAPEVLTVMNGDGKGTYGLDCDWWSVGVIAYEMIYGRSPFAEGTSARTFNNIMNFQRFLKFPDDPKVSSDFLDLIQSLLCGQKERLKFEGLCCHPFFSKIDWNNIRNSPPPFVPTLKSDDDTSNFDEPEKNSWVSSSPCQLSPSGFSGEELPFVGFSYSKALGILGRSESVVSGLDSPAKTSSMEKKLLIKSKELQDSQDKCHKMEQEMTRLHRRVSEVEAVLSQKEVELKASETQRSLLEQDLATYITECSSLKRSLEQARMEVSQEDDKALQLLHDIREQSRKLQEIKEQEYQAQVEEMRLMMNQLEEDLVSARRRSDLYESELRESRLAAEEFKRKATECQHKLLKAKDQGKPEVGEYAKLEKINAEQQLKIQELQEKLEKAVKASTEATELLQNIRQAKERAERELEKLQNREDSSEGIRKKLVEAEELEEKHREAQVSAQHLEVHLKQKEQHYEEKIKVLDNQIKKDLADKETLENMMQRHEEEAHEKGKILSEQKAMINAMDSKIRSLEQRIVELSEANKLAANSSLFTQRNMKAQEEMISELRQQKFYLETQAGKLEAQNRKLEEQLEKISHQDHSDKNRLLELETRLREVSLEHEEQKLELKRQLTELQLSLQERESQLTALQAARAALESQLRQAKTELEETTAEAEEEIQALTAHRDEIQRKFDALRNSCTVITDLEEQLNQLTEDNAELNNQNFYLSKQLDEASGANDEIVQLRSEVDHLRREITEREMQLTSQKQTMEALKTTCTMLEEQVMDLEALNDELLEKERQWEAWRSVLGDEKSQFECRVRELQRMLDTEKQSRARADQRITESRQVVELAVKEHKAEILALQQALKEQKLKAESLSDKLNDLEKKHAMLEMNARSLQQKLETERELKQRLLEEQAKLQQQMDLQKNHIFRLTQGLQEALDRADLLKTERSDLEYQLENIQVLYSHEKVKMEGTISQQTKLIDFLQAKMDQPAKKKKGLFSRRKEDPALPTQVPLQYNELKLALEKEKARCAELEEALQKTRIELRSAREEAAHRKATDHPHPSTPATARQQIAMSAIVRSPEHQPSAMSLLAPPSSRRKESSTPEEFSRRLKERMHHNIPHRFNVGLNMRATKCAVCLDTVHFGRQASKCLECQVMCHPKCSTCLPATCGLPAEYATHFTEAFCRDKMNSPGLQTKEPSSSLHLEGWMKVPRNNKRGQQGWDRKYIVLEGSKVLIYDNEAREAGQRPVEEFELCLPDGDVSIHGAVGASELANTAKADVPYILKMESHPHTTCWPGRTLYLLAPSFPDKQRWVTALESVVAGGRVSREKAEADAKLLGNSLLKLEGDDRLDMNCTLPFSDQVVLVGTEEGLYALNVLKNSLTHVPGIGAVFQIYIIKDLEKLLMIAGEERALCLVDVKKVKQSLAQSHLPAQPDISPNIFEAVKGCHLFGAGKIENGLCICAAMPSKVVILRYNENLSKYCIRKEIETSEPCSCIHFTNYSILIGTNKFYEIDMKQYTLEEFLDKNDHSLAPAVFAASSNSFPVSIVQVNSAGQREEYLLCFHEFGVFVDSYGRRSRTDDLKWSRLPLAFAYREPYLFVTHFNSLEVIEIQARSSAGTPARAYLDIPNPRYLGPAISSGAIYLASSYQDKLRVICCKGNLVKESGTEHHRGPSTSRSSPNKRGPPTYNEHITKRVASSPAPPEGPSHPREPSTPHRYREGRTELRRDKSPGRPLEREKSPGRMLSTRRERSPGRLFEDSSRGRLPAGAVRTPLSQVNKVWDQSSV

- inhibition (CDC42BPA (human); compound 0.001 µM): 4.2%
- inhibition (CDC42BPA (human); compound 0.02 µM): 10.2%
- inhibition (CDC7 (human); compound 0.001 µM): -4.9%
- inhibition (CDC7 (human); compound 0.02 µM): -5.8%
- inhibition (CIT (human); compound 0.001 µM): -2.2%
- inhibition (CIT (human); compound 0.02 µM): -4.4%
- inhibition (CLK1 (human); compound 0.001 µM): 6.6%
- inhibition (CLK1 (human); compound 0.02 µM): -7.5%
- inhibition (DDR1 (human); compound 0.001 µM): -7%
- inhibition (DDR1 (human); compound 0.02 µM): 1.9%
- inhibition (EEF2K (human); compound 0.001 µM): -4.8%
- inhibition (EEF2K (human); compound 0.02 µM): 2.3%
- inhibition (EPHA8 (human); compound 0.001 µM): -5%
- inhibition (EPHA8 (human); compound 0.02 µM): -4.7%
- inhibition (EPHB1 (human); compound 0.001 µM): -9.1%
- inhibition (EPHB1 (human); compound 0.02 µM): -6.5%
- inhibition (ERBB4 (human); compound 0.001 µM): 6.3%
- inhibition (ERBB4 (human); compound 0.02 µM): 3.7%
- inhibition (FLT4 (human); compound 0.001 µM): 21.2%
- inhibition (FLT4 (human); compound 0.02 µM): 86.7%
- inhibition (GSK3A (human); compound 0.001 µM): 2.4%
- inhibition (GSK3A (human); compound 0.02 µM): 0.2%
- inhibition (IRAK4 (human); compound 0.001 µM): -5.7%
- inhibition (IRAK4 (human); compound 0.02 µM): -6.7%
- inhibition (ITK (human); compound 0.001 µM): 2.8%
- inhibition (ITK (human); compound 0.02 µM): 1.9%
- inhibition (KIT (human); compound 0.001 µM): 37.8%
- inhibition (KIT (human); compound 0.02 µM): 70.5%
- inhibition (LYN (human); compound 0.001 µM): -2.2% and 4.1%
- inhibition (LYN (human); compound 0.02 µM): 16% and 9.7%
- inhibition (MAPK1 (human); compound 0.001 µM): -5.9%
- inhibition (MAPK1 (human); compound 0.02 µM): -7.2%
- inhibition (MAPKAPK5 (human); compound 0.001 µM): -1.5%
- inhibition (MAPKAPK5 (human); compound 0.02 µM): 1.6%
- inhibition (MARK4 (human); compound 0.001 µM): -14.2%
- inhibition (MARK4 (human); compound 0.02 µM): -4.7%
- inhibition (MUSK (human); compound 0.001 µM): -3.1%
- inhibition (MUSK (human); compound 0.02 µM): 4.8%
- inhibition (NTRK3 (human); compound 0.001 µM): 2.6%
- inhibition (NTRK3 (human); compound 0.02 µM): 12.9%
- inhibition (NUAK1 (human); compound 0.001 µM): 10.2%
- inhibition (NUAK1 (human); compound 0.02 µM): -1.9%
- inhibition (PAK1 (human); compound 0.001 µM): -1.5%
- inhibition (PAK1 (human); compound 0.02 µM): -1.5%
- inhibition (PAK2 (human); compound 0.001 µM): -3.6%
- inhibition (PAK2 (human); compound 0.02 µM): 4.1%
- inhibition (PDK2 (human); compound 0.001 µM): -2.9%
- inhibition (PDK2 (human); compound 0.02 µM): -4.8%
- inhibition (PIM1 (human); compound 0.001 µM): -5.1%
- inhibition (PIM1 (human); compound 0.02 µM): -3.4%
- inhibition (PRKACB (human); compound 0.001 µM): -7.3%
- inhibition (PRKACB (human); compound 0.02 µM): -10.6%
- inhibition (PRKACG (human); compound 0.001 µM): -7.2%
- inhibition (PRKACG (human); compound 0.02 µM): -7.8%
- inhibition (PRKG2 (human); compound 0.001 µM): -4.8%
- inhibition (PRKG2 (human); compound 0.02 µM): -6%
- inhibition (SIK1 (human); compound 0.001 µM): -5.3%
- inhibition (SIK1 (human); compound 0.02 µM): -4.6%
- inhibition (SIK2 (human); compound 0.001 µM): 0.7%
- inhibition (SIK2 (human); compound 0.02 µM): -1.6%
- inhibition (STK10 (human); compound 0.001 µM): 6.2%
- inhibition (STK10 (human); compound 0.02 µM): 21.3%
- inhibition (STK24 (human); compound 0.001 µM): 2.8%
- inhibition (STK24 (human); compound 0.02 µM): -1.1%
- inhibition (STK3 (human); compound 0.001 µM): -3.8%
- inhibition (STK3 (human); compound 0.02 µM): -2.3%
- inhibition (STK4 (human); compound 0.001 µM): -5.9%
- inhibition (STK4 (human); compound 0.02 µM): 2%
Compound: CNC(=O)c1ccccc1Sc1ccc2c(/C=C/c3ccccn3)n[nH]c2c1

- inhibition (CDC42BPA (human); compound 0.02 µM): 3.4%
- inhibition (CDC42BPA (human); compound 0.2 µM): 14.9%
- inhibition (CDC7 (human); compound 0.02 µM): -3.4%
- inhibition (CDC7 (human); compound 0.2 µM): -0.7%
- inhibition (CIT (human); compound 0.02 µM): -3%
- inhibition (CIT (human); compound 0.2 µM): -1.6%
- inhibition (CLK1 (human); compound 0.02 µM): 8.1%
- inhibition (CLK1 (human); compound 0.2 µM): -6.1%
- inhibition (DDR1 (human); compound 0.02 µM): 25.7%
- inhibition (DDR1 (human); compound 0.2 µM): 95.3%
- inhibition (EEF2K (human); compound 0.02 µM): -5.2%
- inhibition (EEF2K (human); compound 0.2 µM): 3.1%
- inhibition (EPHA8 (human); compound 0.02 µM): -3.2%
- inhibition (EPHA8 (human); compound 0.2 µM): 4.7%
- inhibition (EPHB1 (human); compound 0.02 µM): -7.8%
- inhibition (EPHB1 (human); compound 0.2 µM): -0.3%
- inhibition (ERBB4 (human); compound 0.02 µM): 17.2%
- inhibition (ERBB4 (human); compound 0.2 µM): 49.8%
- inhibition (FLT4 (human); compound 0.02 µM): 73.8%
- inhibition (FLT4 (human); compound 0.2 µM): 97%
- inhibition (GSK3A (human); compound 0.02 µM): 3.5%
- inhibition (GSK3A (human); compound 0.2 µM): 2.1%
- inhibition (IRAK4 (human); compound 0.02 µM): -5.6%
- inhibition (IRAK4 (human); compound 0.2 µM): -5.6%
- inhibition (ITK (human); compound 0.02 µM): 6.7%
- inhibition (ITK (human); compound 0.2 µM): 5.5%
- inhibition (KIT (human); compound 0.02 µM): 64.1%
- inhibition (KIT (human); compound 0.2 µM): 71.4%
- inhibition (LYN (human); compound 0.02 µM): 13.8% and 15.6%
- inhibition (LYN (human); compound 0.2 µM): 53.8% and 53.9%
- inhibition (MAPK1 (human); compound 0.02 µM): -6.5%
- inhibition (MAPK1 (human); compound 0.2 µM): -9%
- inhibition (MAPKAPK5 (human); compound 0.02 µM): 2%
- inhibition (MAPKAPK5 (human); compound 0.2 µM): 0.1%
- inhibition (MARK4 (human); compound 0.02 µM): -7.1%
- inhibition (MARK4 (human); compound 0.2 µM): -7.3%
- inhibition (MUSK (human); compound 0.02 µM): -4.8%
- inhibition (MUSK (human); compound 0.2 µM): -1.6%
- inhibition (NTRK3 (human); compound 0.02 µM): 1.6%
- inhibition (NTRK3 (human); compound 0.2 µM): 1.8%
- inhibition (NUAK1 (human); compound 0.02 µM): 8.9%
- inhibition (NUAK1 (human); compound 0.2 µM): -13.6%
- inhibition (PAK1 (human); compound 0.02 µM): -2.7%
- inhibition (PAK1 (human); compound 0.2 µM): -3%
- inhibition (PAK2 (human); compound 0.02 µM): -4.1%
- inhibition (PAK2 (human); compound 0.2 µM): 3.5%
- inhibition (PDK2 (human); compound 0.02 µM): -2.7%
- inhibition (PDK2 (human); compound 0.2 µM): -4.9%
- inhibition (PIM1 (human); compound 0.02 µM): -2.8%
- inhibition (PIM1 (human); compound 0.2 µM): -8.3%
- inhibition (PRKACB (human); compound 0.02 µM): 6.8%
- inhibition (PRKACB (human); compound 0.2 µM): -7.7%
- inhibition (PRKACG (human); compound 0.02 µM): -4.7%
- inhibition (PRKACG (human); compound 0.2 µM): -1.4%
- inhibition (PRKG2 (human); compound 0.02 µM): -2.4%
- inhibition (PRKG2 (human); compound 0.2 µM): -3.4%
- inhibition (SIK1 (human); compound 0.02 µM): -3.3%
- inhibition (SIK1 (human); compound 0.2 µM): -0.4%
- inhibition (SIK2 (human); compound 0.02 µM): 3.7%
- inhibition (SIK2 (human); compound 0.2 µM): 16.5%
- inhibition (STK10 (human); compound 0.02 µM): 45.1%
- inhibition (STK10 (human); compound 0.2 µM): 91.7%
- inhibition (STK24 (human); compound 0.02 µM): 2%
- inhibition (STK24 (human); compound 0.2 µM): 12.8%
- inhibition (STK3 (human); compound 0.02 µM): -2.4%
- inhibition (STK3 (human); compound 0.2 µM): -3%
- inhibition (STK4 (human); compound 0.02 µM): -4.5%
- inhibition (STK4 (human); compound 0.2 µM): 9%
Compound: COc1cc2c(Oc3ccc4[nH]c(C)cc4c3F)ncnc2cc1OCCCN1CCCC1
